Test results reported in paper PMC11167047 (Cell Death Discovery, 2024).

What was measured:
Test in all cases: kinome screen (33PanQinase)
Assay type in all cases: biochemical
EPHB2 = molecular target: T1, EPHB2 (Homo sapiens, UniProt P29323)
T1 construct: purchased Reaction Biology Europe GmbH (formerly ProQinase)
T1 sequence (P29323 19-1055): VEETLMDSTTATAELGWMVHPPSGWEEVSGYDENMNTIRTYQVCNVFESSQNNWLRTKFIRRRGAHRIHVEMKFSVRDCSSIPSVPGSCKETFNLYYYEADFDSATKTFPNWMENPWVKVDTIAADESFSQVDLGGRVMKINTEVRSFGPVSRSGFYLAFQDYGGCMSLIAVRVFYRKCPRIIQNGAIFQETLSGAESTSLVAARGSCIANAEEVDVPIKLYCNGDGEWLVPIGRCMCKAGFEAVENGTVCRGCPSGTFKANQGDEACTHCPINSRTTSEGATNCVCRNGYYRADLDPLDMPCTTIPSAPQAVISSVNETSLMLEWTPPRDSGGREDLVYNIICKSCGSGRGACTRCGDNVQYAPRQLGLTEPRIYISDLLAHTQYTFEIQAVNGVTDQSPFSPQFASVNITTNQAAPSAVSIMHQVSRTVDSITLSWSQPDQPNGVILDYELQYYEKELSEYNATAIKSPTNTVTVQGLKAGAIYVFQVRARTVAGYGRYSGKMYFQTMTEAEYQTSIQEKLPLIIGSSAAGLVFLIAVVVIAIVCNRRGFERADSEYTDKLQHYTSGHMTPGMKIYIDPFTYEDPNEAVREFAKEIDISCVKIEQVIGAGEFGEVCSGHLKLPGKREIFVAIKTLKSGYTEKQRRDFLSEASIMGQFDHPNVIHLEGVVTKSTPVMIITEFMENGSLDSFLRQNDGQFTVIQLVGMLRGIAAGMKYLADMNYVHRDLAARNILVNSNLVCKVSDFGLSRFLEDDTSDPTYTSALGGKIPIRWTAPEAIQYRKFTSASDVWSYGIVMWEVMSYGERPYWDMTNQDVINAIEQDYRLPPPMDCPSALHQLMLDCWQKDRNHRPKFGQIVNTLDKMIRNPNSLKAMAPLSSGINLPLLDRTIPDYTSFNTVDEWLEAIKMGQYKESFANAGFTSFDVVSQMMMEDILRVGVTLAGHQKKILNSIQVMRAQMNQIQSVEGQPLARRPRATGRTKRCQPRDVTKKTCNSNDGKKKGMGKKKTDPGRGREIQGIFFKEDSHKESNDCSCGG
Protocol: (§1) The Kinome Screening was performed by Reaction Biology Europe GmbH (http://reactionbiology.com; Freiburg i. Br., Germany).

NEK9 = molecular target: T2, NEK9 (Homo sapiens, UniProt Q8TD19)
T2 construct: purchased Reaction Biology Europe GmbH (formerly ProQinase)
T2 sequence (Q8TD19 1-979): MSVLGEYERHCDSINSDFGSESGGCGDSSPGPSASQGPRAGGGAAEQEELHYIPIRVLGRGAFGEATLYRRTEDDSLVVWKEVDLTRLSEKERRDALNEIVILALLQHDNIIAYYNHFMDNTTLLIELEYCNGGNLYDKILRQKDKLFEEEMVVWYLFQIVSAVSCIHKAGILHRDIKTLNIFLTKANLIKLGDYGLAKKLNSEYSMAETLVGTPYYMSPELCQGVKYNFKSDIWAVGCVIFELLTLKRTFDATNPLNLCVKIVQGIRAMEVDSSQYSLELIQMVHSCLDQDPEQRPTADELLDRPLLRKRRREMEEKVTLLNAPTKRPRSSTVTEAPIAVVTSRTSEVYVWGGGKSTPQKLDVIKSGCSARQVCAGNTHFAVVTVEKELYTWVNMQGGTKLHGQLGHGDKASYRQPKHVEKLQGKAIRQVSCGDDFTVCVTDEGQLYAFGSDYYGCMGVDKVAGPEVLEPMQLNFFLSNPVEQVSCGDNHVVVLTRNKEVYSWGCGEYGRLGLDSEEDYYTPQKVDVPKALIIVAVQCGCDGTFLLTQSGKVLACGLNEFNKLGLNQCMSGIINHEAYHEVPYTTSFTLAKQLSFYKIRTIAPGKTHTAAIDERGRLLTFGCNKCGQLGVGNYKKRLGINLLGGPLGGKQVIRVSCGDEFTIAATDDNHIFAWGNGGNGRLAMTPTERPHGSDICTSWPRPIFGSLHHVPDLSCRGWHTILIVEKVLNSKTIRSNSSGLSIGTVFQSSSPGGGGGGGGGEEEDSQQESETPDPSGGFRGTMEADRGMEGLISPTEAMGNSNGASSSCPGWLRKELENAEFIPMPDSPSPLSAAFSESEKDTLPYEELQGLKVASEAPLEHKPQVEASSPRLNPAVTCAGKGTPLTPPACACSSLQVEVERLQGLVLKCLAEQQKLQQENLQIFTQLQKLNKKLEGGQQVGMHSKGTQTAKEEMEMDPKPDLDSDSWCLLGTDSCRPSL
Protocol: as §1

PKCι = molecular target: T3, PKCι (Homo sapiens, UniProt P41743)
T3 construct: purchased Reaction Biology Europe GmbH (formerly ProQinase)
T3 sequence (P41743 1-596): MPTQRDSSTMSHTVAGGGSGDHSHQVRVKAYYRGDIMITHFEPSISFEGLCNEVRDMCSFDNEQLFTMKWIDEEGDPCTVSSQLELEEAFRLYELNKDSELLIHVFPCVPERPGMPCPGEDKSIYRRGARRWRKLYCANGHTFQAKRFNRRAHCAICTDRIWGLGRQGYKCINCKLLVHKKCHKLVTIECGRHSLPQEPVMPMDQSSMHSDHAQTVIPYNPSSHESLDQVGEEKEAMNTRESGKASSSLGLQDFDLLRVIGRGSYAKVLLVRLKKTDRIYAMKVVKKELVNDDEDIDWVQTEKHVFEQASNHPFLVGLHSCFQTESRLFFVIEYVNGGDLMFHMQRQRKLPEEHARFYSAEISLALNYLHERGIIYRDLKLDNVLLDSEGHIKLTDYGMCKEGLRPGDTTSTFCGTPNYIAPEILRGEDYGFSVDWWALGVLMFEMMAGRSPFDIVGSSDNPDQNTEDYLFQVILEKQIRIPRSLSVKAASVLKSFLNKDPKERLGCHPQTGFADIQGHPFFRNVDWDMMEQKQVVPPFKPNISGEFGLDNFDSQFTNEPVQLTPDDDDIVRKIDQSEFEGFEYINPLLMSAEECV
Protocol: as §1

SMILES	residual kinase activity (EPHB2; 0.03 µM)	residual kinase activity (EPHB2; 0.3 µM)	residual kinase activity (NEK9; 0.03 µM)	residual kinase activity (NEK9; 0.3 µM)	residual kinase activity (PKCι; 0.03 µM)	residual kinase activity (PKCι; 0.3 µM)	residual kinase activity (EPHB2; 3 µM)	residual kinase activity (NEK9; 3 µM)	residual kinase activity (PKCι; 3 µM)
COc1ccnc2[nH]cc(-c3cc(N)nc(N)c3)c12 [meriolin 16]	97 % of control	95 % of control	89 % of control	87 % of control	105 % of control	94 % of control			
c1ccc(CNc2cc(-c3c[nH]c4ncccc34)ccn2)cc1 [meriolin 36]		85 % of control		88 % of control		75 % of control	47 % of control	67 % of control	32 % of control
